The results in this text go back to patent US9072742B2, “Method of predicting a predisposition to QT prolongation” (Vanda Pharmaceuticals, Inc., priority 2009, dated 2015).

Where “and” joins values, the source holds several entries; their conditions need not be identical. Identical values can stand only once.

For the series, the system named is individuals genotyped at the rs1083338 locus (BAI3 gene). The experiment in a line: QT prolongation (change in QTc, Fridericia) after oral iloperidone for two weeks, by rs1083338 genotype. Format: in vivo, human. The note with it: for Odds Ratio: GG vs non-GG at rs1083338, iloperidone 24 mg/day; for High QT +test (number of individuals) / Low QT +test (number of individuals) / High QT −test (number of individuals) / Low QT −test (number of individuals): iloperidone 24 mg/day B.I.D. oral; for High QT +test (number of individuals) / Low QT +test (number of individuals): GG genotype at rs1083338; for High QT −test (number of individuals) / Low QT −test (number of individuals): genotype other than GG at rs1083338. Here is the method:
Since the QT interval changes with changes in heart rate, the QT interval is often measured as a corrected QT (QTc) interval. Any number of formulas may be employed to calculate the QTc, including, for example, the Fridericia formula (QTcF), the Bazett formula (QTcB), and the Rautaharju formula (QTp), among others. In the studies described herein, QT was calculated using the Fridericia formula. However, the present invention includes the use of any such formula or method for calculating a QTc or an uncorrected QT. Using the genotypes at the SNP loci above, it is possible, with a high degree of certainty, to predict an individual's predisposition to QT prolongation.

For the molecule `COc1cc(C(C)=O)ccc1OCCCN1CCC(c2noc3cc(F)ccc23)CC1` [iloperidone, 1-[4-[3-[4-(6-fluoro-1,2-benzisoxazol-3-yl)-1-piperidinyl]propoxy]-3-methoxyphenl]ethanone], under “Change threshold QT > 5 msec”, the “Odds Ratio” value is 4.21; the “High QT +test (number of individuals)” value was 39; the “Low QT +test (number of individuals)” value is “seven and 7”; the “High QT −test (number of individuals)” value is on record as 78. In addition, the “Low QT −test (number of individuals)” value (Change threshold QT > 5 msec) was 59. Moreover, under “Change threshold QT > 15 msec”, the “Odds Ratio” value is reported as 3.61, the “High QT +test (number of individuals)” value was 29, the “Low QT +test (number of individuals)” value is on record as 17 and the “High QT −test (number of individuals)” value is listed as 44. Further, the “Low QT −test (number of individuals)” value (Change threshold QT > 15 msec) is 93. Moreover, under “Change threshold QT > 30 msec”, the “Odds Ratio” value was determined as 3.84, the “High QT +test (number of individuals)” value was 14, the “Low QT +test (number of individuals)” value is recorded as 32 and the “High QT −test (number of individuals)” value is recorded as 14. In addition, under “Change threshold QT > 30 msec”, the “Low QT −test (number of individuals)” value is listed as 123.
